Tested on: Na^+-dependent Cl^−/HCO3^− exchanger (NCBE)
Experiment: Inhibition of the Na+-dependent Cl−/HCO3− exchanger (NCBE) in human endothelial cells (pHi recovery, BCECF fluorescence, FLIPR)
Format: cell-based
Method in brief: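 Fluorescence rise (FLIPR, 2 min, 35 °C) tracked pHi recovery in acid-loaded, BCECF-loaded ECV-304 cells after adding Na+- and HCO3−-containing buffer with 50 μM HOE 642 and graded compound doses. Inhibition was calculated against full-recovery and bicarbonate-free no-recovery controls.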

[1] = compound at 10 μM, sub-table with R7 substituent
[2] = compound at 10 μM, R(3) to R(7) hydrogen series

Structure (SMILES) | Residual activity % of the NCBE at 10 μM (10 μM) [%] | further results
C[C@@H](c1ccccc1)N(Cc1ccc(-c2ccccc2S(=O)(=O)NC#N)cc1)C(=O)c1cccs1 [Example 83] | 97.5 | 
CC(C)CN(Cc1ccc(-c2ccccc2S(=O)(=O)NC#N)cc1)C(=O)Cc1ccccc1 [Example 122] | 90.6 | 
COc1ccc(CN(Cc2ccc(-c3ccccc3S(=O)(=O)NC#N)cc2)C(=O)Cc2cccs2)cc1 [Example 27] | 35.5 | 
C[C@H](c1ccccc1)N(Cc1ccc(-c2ccccc2S(=O)(=O)NC#N)cc1)C(=O)C(c1ccccc1)c1ccccc1 [Example 118] | 95.3 | 
COc1ccc(CN(Cc2ccc(-c3ccccc3S(=O)(=O)NC#N)cc2)C(=O)CCC2CCCCC2)cc1 [Example 9] | 86.6 | 
CCN(Cc1ccc(-c2ccccc2S(=O)(=O)NC#N)cc1)C(=O)Cc1ccsc1 [Example 231] | 57.8 | 
N#CNS(=O)(=O)c1ccccc1-c1ccc(CN(Cc2ccccn2)C(=O)C(=O)c2cccs2)cc1 [Example 196] | 62.8 | 
Cc1ccc(C(=O)N(CCO)Cc2ccc(-c3ccccc3S(=O)(=O)NC#N)cc2)cc1 [Example 68] | 94.4 | 
C[C@@H](c1ccccc1)N(Cc1ccc(-c2ccccc2S(=O)(=O)NC#N)cc1)C(=O)c1ccccc1F [Example 93] | 92.9 | 
COc1cccc(CC(=O)N(Cc2ccc(-c3ccccc3S(=O)(=O)NC#N)cc2)C2CCCCC2)c1 [Example 24] | 92.1 | 
N#CNS(=O)(=O)c1ccc(Cl)cc1-c1ccc(CN(Cc2ccccc2)C(=O)Cc2cccs2)cc1 [Example 553] |  | Residual activity % of the NCBE at 10 μM [1]: 85.7%
COCCC(=O)N(Cc1ccc(-c2ccccc2S(=O)(=O)NC#N)cc1)C1CCCc2ccccc21 (centres unmarked) [Example 325] | 33.8 | 
Cc1ccc(-c2ccc(CN(Cc3ccccc3Cl)C(=O)Cc3ccc(Cl)cc3)cc2)c(S(=O)(=O)NC#N)c1 [Example 532] |  | Residual activity % of the NCBE at 10 μM [1]: 71.0%
COC(=O)C(c1ccccc1)N(Cc1ccc(-c2ccccc2S(=O)(=O)NC#N)cc1)C(=O)Cc1ccccc1Br (centres unmarked) [Example 274] | 73.6 | 
COc1ccccc1C(=O)N(Cc1ccc(-c2ccccc2S(=O)(=O)NC#N)cc1)Cc1ccc2ccccc2c1 [Example 330] | 14.4 | 
N#CNS(=O)(=O)c1ccccc1-c1ccc(CN(CCCc2ccccc2)C(=O)Cc2c[nH]c3ccccc23)cc1 [Example 202] | 38.5 | 
N#CNS(=O)(=O)c1ccccc1-c1ccc(CN(Cc2ccccc2)C(=O)Cc2ccco2)cc1 [Example 389] |  | Residual activity % of the NCBE at 10 μM [2]: 51.5%
N#CNS(=O)(=O)c1ccccc1-c1ccc(CN(CC2CC2)C(=O)COc2ccccc2)cc1 [Example 168] | 96.4 | 
CC(C(=O)N(Cc1ccc(-c2ccccc2S(=O)(=O)NC#N)cc1)Cc1cccc2ccccc12)c1cccs1 (centres unmarked) [Example 390] |  | Residual activity % of the NCBE at 10 μM [2]: 89.8%
N#CNS(=O)(=O)c1ccccc1-c1ccc(CN(C(=O)Cc2cccs2)C(C(=O)O)c2ccccc2)cc1 (centres unmarked) [Example 282] | 89.0 | 
N#CNS(=O)(=O)c1ccccc1-c1ccc(CN(CCO)C(=O)CCC2CCCCC2)cc1 [Example 8] | 86.7 | 

Structure (SMILES) | Residual activity % of the NCBE at 10 μM (10 μM) [%] | further results
N#CNS(=O)(=O)c1ccccc1-c1ccc(CN(Cc2ccc(Cl)c(Cl)c2)C(=O)C(NC(=O)OCc2ccccc2)c2ccccc2)cc1 (centres unmarked) [Example 260] | 69.8 | 
COC(=O)C(c1ccccc1)N(Cc1ccc(-c2ccccc2S(=O)(=O)NC#N)cc1)C(=O)CCc1cccs1 (centres unmarked) [Example 286] | 68.8 | 
N#CNS(=O)(=O)c1ccccc1-c1ccc(CN(Cc2ccccc2)C(=O)C2CCCCC2)cc1 [Example 13] | 74.7 | 
N#CNS(=O)(=O)c1ccccc1-c1ccc(CN(CCOc2ccccc2)C(=O)COc2ccccc2)cc1 [Example 166] | 57.9 | 
CC(C)(C)CC(=O)N(Cc1ccc(-c2ccccc2S(=O)(=O)NC#N)cc1)CC1CC1 [Example 161] | 81.6 | 
N#CNS(=O)(=O)c1ccccc1-c1ccc(CN(Cc2ccccc2)C(=O)c2ccccc2Cl)cc1 [Example 55] | 29.3 | 
CN(Cc1ccc(-c2ccccc2S(=O)(=O)NC#N)cc1)C(=O)Cc1csc2ccccc12 [Example 214] | 44.3 | 
CC(C(=O)N(Cc1ccccc1)Cc1ccc(-c2ccccc2S(=O)(=O)NC#N)cc1)c1ccsc1 (centres unmarked) [Example 388] |  | Residual activity % of the NCBE at 10 μM [2]: 63.7%
CC(C)CN(Cc1ccc(-c2ccccc2S(=O)(=O)NC#N)cc1)C(=O)C(c1ccccc1)c1ccccc1 [Example 112] | 90.4 | 
CCN(Cc1ccc(-c2ccccc2S(=O)(=O)NC#N)cc1)C(=O)C(=O)c1cccs1 [Example 199] | 54.7 | 
N#CNS(=O)(=O)c1ccccc1-c1ccc(CN(Cc2ccccc2Cl)C(=O)Cc2cccs2)cc1 [Example 143] | 35.7 | 
N#CNS(=O)(=O)c1ccccc1-c1ccc(CN(Cc2ccc3ccccc3c2)C(=O)CC2CCCC2)cc1 [Example 360] | 36.9 | 
N#CNS(=O)(=O)c1ccccc1-c1ccc(CN(Cc2ccc(C(F)(F)F)cc2)C(=O)Cc2ccccc2)cc1 [Example 129] | 47.4 | 
Cc1ccc(-c2ccc(CN(Cc3cccc(Cl)c3Cl)C(=O)C(C)c3cccs3)cc2)c(S(=O)(=O)NC#N)c1 (centres unmarked) [Example 528] |  | Residual activity % of the NCBE at 10 μM [1]: 72.0%
C[C@@H](c1ccccc1)N(Cc1ccc(-c2ccccc2S(=O)(=O)NC#N)cc1)C(=O)Cc1ccccc1 [Example 123] | 72.2 | 
Cc1ccc(-c2ccc(CN(Cc3ccccc3Cl)C(=O)CC3CCCCC3)cc2)c(S(=O)(=O)NC#N)c1 [Example 548] |  | Residual activity % of the NCBE at 10 μM [1]: 65.2%
COc1cc(CN(Cc2ccc(-c3ccccc3S(=O)(=O)NC#N)cc2)C(=O)Cc2cccs2)cc(OC)c1OC [Example 145] | 39.6 | 
Cc1cccc(CN(Cc2ccc(-c3ccccc3S(=O)(=O)NC#N)cc2)C(=O)CC2CCCC2)c1 [Example 361] | 29.4 | 
COc1ccc(CCN(Cc2ccc(-c3ccccc3S(=O)(=O)NC#N)cc2)C(=O)C(c2ccccc2)c2ccccc2)cc1 [Example 120] | 81.3 | 
C=CCOC(=O)N(Cc1ccc(OC)cc1)Cc1ccc(-c2ccccc2S(=O)(=O)NC#N)cc1 [Example 45] | 80.1 | 
N#CNS(=O)(=O)c1ccccc1-c1ccc(CN(CC2CCCCC2)C(=O)Cc2ccccc2[N+](=O)[O-])cc1 [Example 257] | 54.6 | 

Structure (SMILES) | Residual activity % of the NCBE at 10 μM (10 μM) [%] | further results
COc1cccc(CN(Cc2ccc(-c3ccccc3S(=O)(=O)NC#N)cc2)C(=O)Cc2ccccc2)c1 [Example 126] | 53.7 | 
Cc1ccc(-c2ccc(CN(CCc3ccccc3)C(=O)Cc3cccs3)cc2)c(S(=O)(=O)NC#N)c1 [Example 518] |  | Residual activity % of the NCBE at 10 μM [1]: 93.5%
N#CNS(=O)(=O)c1ccccc1-c1ccc(CN(Cc2ccc3c(c2)OCO3)C(=O)c2cccs2)cc1 [Example 87] | 54.8 | 
N#CNS(=O)(=O)c1ccccc1-c1ccc(CN(Cc2cccc(Cl)c2)C(=O)Nc2c(F)cccc2F)cc1 [Example 305] | 84.9 | 
COc1ccccc1C(=O)N(Cc1ccc(-c2ccccc2S(=O)(=O)NC#N)cc1)Cc1ccccc1C [Example 332] | 31.7 | 
N#CNS(=O)(=O)c1ccccc1-c1ccc(CN(Cc2ccccc2Cl)C(=O)c2ccccc2F)cc1 [Example 91] | 62.7 | 
CCCCC(=O)N(Cc1ccc(Cl)cc1)Cc1ccc(-c2ccccc2S(=O)(=O)NC#N)cc1 [Example 65] | 80.0 | 
N#CNS(=O)(=O)c1ccccc1-c1ccc(CN(CC2CCCO2)C(=O)Cc2cccs2)cc1 (centres unmarked) [Example 318] | 16.4 | 
N#CNS(=O)(=O)c1ccccc1-c1ccc(CN(Cc2ccccc2Cl)C(=O)Cc2ccccc2)cc1 [Example 121] | 72.1 | 
N#CNS(=O)(=O)c1ccccc1-c1ccc(CN(Cc2ccccc2F)C(=O)CC2CCCCC2)cc1 [Example 356] | 47.4 | 
CC(=O)N(Cc1ccc(-c2ccccc2S(=O)(=O)NC#N)cc1)CC1CC1 [Example 182] | 74.9 | 
CCN(Cc1ccc(-c2ccccc2S(=O)(=O)NC#N)cc1)C(=O)CCCCc1cccs1 [Example 223] | 53.8 | 
N#CNS(=O)(=O)c1ccccc1-c1ccc(CN(Cc2cccc(Cl)c2)C(=O)Cc2ccccc2Br)cc1 [Example 278] | 31.2 | 
COCCC(=O)N(CC=C(C)CCC=C(C)C)Cc1ccc(-c2ccccc2S(=O)(=O)NC#N)cc1 [Example 323] | 23.6 | 
N#CNS(=O)(=O)c1ccccc1-c1ccc(CN(Cc2ccccc2)C(=O)C(NC(=O)OCc2ccccc2)c2ccccc2)cc1 (centres unmarked) [Example 242] | 72.4 | 
COC(=O)C(c1ccccc1)N(Cc1ccc(-c2ccccc2S(=O)(=O)NC#N)cc1)C(=O)Cc1cccs1 (centres unmarked) [Example 268] | 79.3 | 
Cc1ccc(-c2ccc(CN(Cc3ccccc3F)C(=O)Cc3ccc(Cl)cc3)cc2)c(S(=O)(=O)NC#N)c1 [Example 535] |  | Residual activity % of the NCBE at 10 μM [1]: 84.0%
Cc1ccc(-c2ccc(CN(Cc3cccc(Cl)c3Cl)C(=O)CC3CCCCC3)cc2)c(S(=O)(=O)NC#N)c1 [Example 552] |  | Residual activity % of the NCBE at 10 μM [1]: 61.5%
C[C@@H](c1ccccc1)N(Cc1ccc(-c2ccccc2S(=O)(=O)NC#N)cc1)C(=O)C(C(=O)Cc1ccccc1)c1ccccc1 (some centres unmarked) [Example 136] | 93.6 | 
N#CNS(=O)(=O)c1ccccc1-c1ccc(CN(Cc2ccccc2)C(=O)C(N)c2ccccc2)cc1 (centres unmarked) [Example 241] | 66.0 | 

Source: patent US6369069B1 (Aventis Pharma Deutschland GmbH, priority 1998, dated 2002)
